Test results as given in the supplement of paper PMC4932681.
Where a name gives a salt, the structure may show the parent alone.

Key:
Experiment in all cases: viability inhibition at highest dose (% inhibition); higher = more growth inhibition
BT-474 Tam1 = details: 4-OH-tamoxifen in medium 1 µM; 72 h
Method: (§1)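 Percent inhibition of viability (CellTiter-Glo, 72 h) at the highest tested concentration (D5), normalised to DMSO (0%) and 100 µM benzethonium chloride (100%). Resistant lines and the 'in 1µM tamoxifen' arms were tested in 1 µM 4-OH-tamoxifen.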

BT-474 Tam2 = details: 4-OH-tamoxifen in medium 1 µM; 72 h
Method: as §1

BT-474 = details: 72 h
Method: as §1

MCF-7 Tam1 = details: 4-OH-tamoxifen in medium 1 µM; 72 h
Method: as §1

MCF-7 = details: 72 h
Method: as §1

T-47D Tam1 = details: 4-OH-tamoxifen in medium 1 µM; 72 h
Method: as §1

T-47D Tam2 = details: 4-OH-tamoxifen in medium 1 µM; 72 h
Method: as §1

T-47D = details: 72 h
Method: as §1

ZR-75-1 Tam1 = details: 4-OH-tamoxifen in medium 1 µM; 72 h
Method: as §1

ZR-75-1 Tam2 = details: 4-OH-tamoxifen in medium 1 µM; 72 h
Method: as §1

ZR-75-1 = details: 72 h
Method: as §1

SMILES | viability inhibition at highest dose (BT-474 Tam1) | viability inhibition at highest dose (BT-474 Tam2) | viability inhibition at highest dose (BT-474; 4-OH-tamoxifen in medium 0 µM) | viability inhibition at highest dose (BT-474; 4-OH-tamoxifen in medium 1 µM) | viability inhibition at highest dose (MCF-7 Tam1) | viability inhibition at highest dose (MCF-7; 4-OH-tamoxifen in medium 0 µM) | viability inhibition at highest dose (MCF-7; 4-OH-tamoxifen in medium 1 µM) | viability inhibition at highest dose (T-47D Tam1) | viability inhibition at highest dose (T-47D Tam2) | viability inhibition at highest dose (T-47D; 4-OH-tamoxifen in medium 0 µM) | viability inhibition at highest dose (T-47D; 4-OH-tamoxifen in medium 1 µM) | viability inhibition at highest dose (ZR-75-1 Tam1) | viability inhibition at highest dose (ZR-75-1 Tam2) | viability inhibition at highest dose (ZR-75-1; 4-OH-tamoxifen in medium 0 µM) | viability inhibition at highest dose (ZR-75-1; 4-OH-tamoxifen in medium 1 µM)
CCc1c2c(nc3ccc(OC(=O)N4CCC(N5CCCCC5)CC4)cc13)-c1cc3c(c(=O)n1C2)COC(=O)[C@]3(O)CC [Irinotecan] (drug 10000 nM) | -9.22 | -11 | -20.2 | -25.4 | -8.36 | 23.7 | 23.7 | 34.4 | 23.3 | 42.8 | -0.292 | 35 | 44.3 | 41.6 | 30
CN(C)C/C=C/C(=O)Nc1cc2c(Nc3ccc(F)c(Cl)c3)ncnc2cc1O[C@H]1CCOC1 [Afatinib (BIBW2992, Tovok)] (drug 1000 nM) | 95.9 | 95.5 | 82.2 | 93.8 | -0.193 | -11.5 | 19 | 19.8 | 16.6 | 0.755 | -3.23 | 0.501 | -3.77 | -5.16 | 1.48
COc1cc([C@@H]2c3cc4c(cc3[C@@H](O[C@@H]3O[C@@H]5CO[C@@H](C)O[C@H]5[C@H](O)[C@H]3O)[C@H]3COC(=O)[C@H]23)OCO4)cc(OC)c1O [Etoposide] (drug 10000 nM) | 14 | -7.49 | -4.44 | 27.7 | -2.1 | 8.22 | 12.7 | 42.1 | 7.25 | 46.7 | 15.7 | 23 | 15.5 | 32.5 | 19.4
O=C(/C=C/c1cccnc1)NCCCCC1CCN(C(=O)c2ccccc2)CC1 [Daporinad (FK-866 HCl)] (drug 1000 nM) | 47.2 | 17.4 | 12.2 | 64.7 | -5.53 | 76.6 | 67.9 | 91.9 | 85.3 | 92.2 | 90.2 | -12.7 | 0.891 | -2.09 | -11.5
O=C1NC(=O)[C@@H](c2cn3c4c(cccc24)CCC3)[C@@H]1c1c[nH]c2ccccc12 [Tivatinib (ARQ 197)] (drug 1000 nM) | 16.1 | 10.4 | 34.3 | 43.9 | -6.15 | 27.5 | 18.4 | 26.7 | 27.8 | 43.2 | 7.95 | 5.46 | 8.59 | 19.6 | 10.3
S=P(N1CC1)(N1CC1)N1CC1 [Thio-TEPA] (drug 100000 nM) | 11.3 | 9.92 | -3.59 | -5.3 | -0.761 | -13.2 | 9.81 | 3.55 | -1.13 | 2.16 | -2.96 | 11.1 | 4.16 | 4.61 | -3.56
CO[C@@]12[C@H](COC(N)=O)C3=C(C(=O)C(C)=C(N)C3=O)N1C[C@@H]1N[C@@H]12 [Mitomycin C] (drug 10000 nM) | 0.772 | 0.827 | -12.3 | -7 | -6.06 | 16.2 | 11.4 | 33.5 | 10.8 | 31.4 | -4.69 | 28.3 | 23.4 | 25.5 | 23.7
C=CCN(/C=C1/C(=O)O[C@H](COC)[C@@]2(C)C1=C(O)C(=O)C1=C2[C@H](OC(C)=O)C[C@]2(C)C(=O)CC[C@@H]12)CC=C [Sonolisib (PX-866)] (drug 10000 nM) | -5.08 | -8.14 | -6.97 | -17.3 | -2.1 | -6.01 | 11.3 | 9.15 | 9.95 | -6.68 | 0.837 | 15.2 | 13.3 | 7.54 | 18.1
O=C(Nc1c[nH]nc1-c1nc2ccc(CN3CCOCC3)cc2[nH]1)NC1CC1 [AT9283] (drug 1000 nM) | 1.94 | 11.4 | -19.7 | -13.2 | -5.75 | -25.8 | -11 | -7.78 | 2.08 | -42.6 | -23.3 | -22.4 | -19.2 | -44.4 | -22.6
COc1cc(Nc2ncc(F)c(Nc3ccc4c(n3)NC(=O)C(C)(C)O4)n2)cc(OC)c1OC [Tamatinib (R406)] (drug 10000 nM) | -6.1 | -9.51 | -9.68 | -22.1 | -9.69 | -1.78 | 4.31 | 14.3 | 9.45 | -10 | -10.3 | 0.732 | -2.25 | -7.27 | -4.27
COc1ncc(-c2ccc3nccc(-c4ccnnc4)c3c2)cc1NS(=O)(=O)c1ccc(F)cc1F (drug 1000 nM) | 98.5 | 98 | 90 | 97.1 | 60.1 | 68.6 | 85 | 69.3 | 78 | 71.6 | 77.9 | 83 | 86.4 | 76.9 | 72.3
